Values after ≈ are worked out from the molar mass of the structure shown. Where only a bound is given, the exact number is not on record here.

As usually defined, the MIC is the lowest concentration that inhibits growth of the organism. As a reminder, the ΔTm is the change in melting temperature against a reference sample. As a reminder, the inhibition is the share of the control response that was lost under treatment. As a reminder, the Ki is the dissociation constant of the complex between target and ligand, obtained from inhibition or displacement. Low readings indicate a stronger hold on the target, high ones a looser hold on the target. Usually MBC stands for the lowest tested concentration that kills the bacteria rather than only halting them. A higher MBC goes with less potent killing.

The test system of test [1] is Francisella tularensis. Briefly: Antimicrobial activity against Francisella tularensis BEI/ATCC UTAH 112 measured after overnight incubation. It is filed as functional.
In test [2] the test system is Bacillus anthracis. Briefly: Inhibition of recombinant Bacillus anthracis PurE assessed as change in melting temperature at 100 uM after 10 to 30 mins by high-throughput thermal shift screening.
Test [3] deals with Bacillus anthracis. As to the kind of experiment: Antimicrobial activity against Bacillus anthracis deltaANR measured after overnight incubation. It is filed as functional.
In test [4] the test system is Bacillus anthracis. As to the kind of experiment: Inhibition of recombinant Bacillus anthracis PurE assessed as inhibition of 4-carboxy-amino-imidazole ribonucleotide to N5-carboxy-amino-imidazole ribonucleotide conversion preincubated for 1.5 mins at 10 uM by mass spectrometry analysis.
A short description of test [5]: Binding affinity to Gallus gallus PurE.
Test [6] is described as follows: Binding affinity to Escherichia coli PurE.
The subject of test [7] is Yersinia pestis. Briefly: Antimicrobial activity against Yersinia pestis BEI/ATCC A1122 measured after overnight incubation. It is filed as functional.
The test system of test [8] is Staphylococcus aureus. As to the kind of experiment: Antimicrobial activity against methicillin-sensitive Staphylococcus aureus ATCC 29213 measured after overnight incubation. It is filed as functional.
Test [9] concerns Staphylococcus aureus. As to the kind of experiment: Antimicrobial activity against methicillin-resistant Staphylococcus aureus ATCC 43300 measured after overnight incubation. It is filed as functional.
For test [10], the system named is Escherichia coli. As to the kind of experiment: Antimicrobial activity against TolC-deficient Escherichia coli BW25113 measured after overnight incubation. It is filed as functional.
The subject of test [11] is Bacillus anthracis. As to the kind of experiment: Ratio of MBC to MIC for against Bacillus anthracis deltaANR measured after 72 hrs. It is filed as functional.
Test [12] relates to Bacillus anthracis. Briefly: Bactericidal activity against Bacillus anthracis deltaANR measured after 72 hrs. It is filed as functional.
Test [13] in a line: Ratio of MIC for Francisella tularensis BEI/ATCC UTAH 112 to MIC for Bacillus anthracis deltaANR. It is filed as functional.
A short description of test [14]: Ratio of MIC for Yersinia pestis BEI/ATCC A1122 to MIC for Bacillus anthracis deltaANR. It is filed as functional.

Compound `CC(=O)NC[C@H]1CN(c2ccc(N3CCOCC3)c(F)c2)C(=O)O1` [LINEZOLID] showed an MIC in test [1] of 32 µg/mL (≈ 94.9 µM).
For `O=C(Oc1ccccc1)Oc1ccc(N(C(=O)Oc2ccccc2)S(=O)(=O)c2ccc3ccccc3c2)cc1Br`, the ΔTm in [2] stood at 5.2 °C. This compound registered an MIC in test [3] greater than 12.5 µg/mL. For the same compound, the inhibition in [4] amounted to 28%.
Taken in the same sequence, the figures for `NS(=O)(=O)c1ccc(NC(=O)CSc2nnc(-c3ccccc3)o2)cc1` were 1.5 °C, greater than 12.5 µg/mL and 12%.
In the case of `Nc1c([N+](=O)[O-])ncn1[C@@H]1O[C@H](COP(=O)(O)O)[C@@H](O)[C@H]1O`, in [2], the thermal shift (ΔTm) is 5.6 °C. Moreover, the Ki turned out to be 0.34 nM in [5] and 500 nM in test [6]. Moreover, in [4], the inhibition worked out at 24%.
`O=C(NCc1c(-c2ccc(Cl)cc2)nc2n1CCS2)c1cccs1`: the ΔTm in [2] amounted to 4.7 °C. The MIC in [3], in test [7] and in [1] was greater than 12.5 µg/mL throughout. The inhibition in test [4] was 11%.
Regarding `CCCCC(CC)CNc1nc2c(c(=O)[nH]c(=O)n2C)n1CC(O)COc1ccc(C)c(C)c1` (stereo unspecified), in [2], the ΔTm was 1.8 °C. Moreover, the inhibition in [4] amounted to 7%. In test [1], the MIC is greater than 12.5 µg/mL.
With `O=C(O)c1cn(C2CC2)c2cc(N3CCNCC3)c(F)cc2c1=O` [CIPROFLOXACIN], the MIC in [8] is 0.35 µg/mL (≈ 1.06 µM); in test [3], 0.11 µg/mL (≈ 0.332 µM); in [7], 0.04 µg/mL (≈ 0.121 µM); in test [9], 0.34 µg/mL (≈ 1.03 µM); in test [1], 0.03 µg/mL (≈ 0.0905 µM).
Turning to `O=C(Nc1cccc(C(F)(F)F)c1)N1CCN(c2ccc3nncn3n2)CC1`, the ΔTm in test [2] worked out at 3.1 °C. For the same compound, the MIC in test [3], in test [7] and in test [1] was greater than 12.5 µg/mL in each case. Also, the inhibition in test [4] stood at 14%.
Regarding `Cc1ccc(C)c(-c2nnc(NC(=O)c3cc(Cl)sc3Cl)o2)c1`, in test [2], the ΔTm was 1.1 °C. Besides, the minimum inhibitory concentration (MIC) came to 0.78 µg/mL (≈ 2.12 µM) in test [8]; 0.05 µg/mL (≈ 0.136 µM) in [3]; 0.07 µg/mL (≈ 0.19 µM) in test [10]; 3.1 µg/mL (≈ 8.42 µM) in test [7]; 1.95 µg/mL (≈ 5.3 µM) in [9]; 1.6 µg/mL (≈ 4.34 µM) in test [1]. For the same compound, the MBC/MIC ratio in [11] was greater than 4 µg/mL. The compound further displayed an MBC in test [12] greater than 12.5 µg/mL. The Ratio in test [13] and in test [14] was 10 in each case. Further, the inhibition in test [4] came out at 20%.
Take `COc1ccc(Cl)c(C(=O)Nc2nnc(-c3ccc(Br)cc3)o2)c1`: the ΔTm in [2] is 1.4 °C. Also, the MIC in test [8] worked out at 1.56 µg/mL (≈ 3.82 µM); in test [3], 0.78 µg/mL (≈ 1.91 µM); in test [10] it was 0.39 µg/mL (≈ 0.954 µM); in test [7] it was 3.1 µg/mL (≈ 7.59 µM); in test [9] it was 3.13 µg/mL (≈ 7.66 µM); in [1], 1.2 µg/mL (≈ 2.94 µM). Besides, the MBC/MIC ratio in [11] was greater than 4 µg/mL. For the same compound, the MBC in test [12] was greater than 12.5 µg/mL. Further, the Ratio in [13] and in [14] was 10 each time. The inhibition in test [4] worked out at 15%.
As to `Cc1ccc(C)c(-c2nnc(NC(=O)c3cccc(Cl)c3)o2)c1`, the ΔTm in test [2] was 2.4 °C. The MIC in [8] was 0.2 µg/mL (≈ 0.61 µM); in test [3], 0.1 µg/mL (≈ 0.305 µM); in test [10], 0.02 µg/mL (≈ 0.061 µM); in test [7], greater than 12.5 µg/mL; in test [9], greater than 12.5 µg/mL; in test [1], 6.3 µg/mL (≈ 19.2 µM). Also, the MBC/MIC ratio in test [11] is greater than 4 µg/mL. In addition, the MBC in [12] is greater than 12.5 µg/mL. Further, the Ratio in test [13] and in test [14] was 10 each time. Further, the inhibition in [4] amounted to 19%.
In the case of `Cc1c(C(=O)Nc2nnc(-c3cc(Cl)ccc3Cl)o2)c(-c2ccccc2)nc2ccccc12`, in test [2], the ΔTm was 7.9 °C. For the same compound, the MIC in test [8] was greater than 12.5 µg/mL; in [3] it was 0.1 µg/mL (≈ 0.21 µM); in test [10], 0.39 µg/mL (≈ 0.82 µM); in test [7] it was greater than 12.5 µg/mL; in test [9] it was 6.25 µg/mL (≈ 13.1 µM); in test [1], 3.1 µg/mL (≈ 6.52 µM). The MBC/MIC ratio in test [11] is greater than 4 µg/mL. Further, the MBC in test [12] was greater than 12.5 µg/mL. For the same compound, the Ratio in test [13] and in [14] was 10 in each case. Also, the inhibition in test [4] was determined as 19%.
Regarding `COc1cccc(-c2nc(Cn3nnc(C(=O)NCc4ccc(Cl)cc4)c3N)c(C)o2)c1OC`, the ΔTm in [2] amounted to 1.2 °C. In addition, the MIC in [3] and in test [1] was greater than 12.5 µg/mL throughout. Moreover, the inhibition in [4] worked out at 6%.
For `Cc1sc2ccsc2[n+]1CC(=O)O.[Br-]`, in test [2], the ΔTm stood at 4.4 °C. Besides, the MIC in test [3], in [7] and in test [1] was greater than 12.5 µg/mL in each case. The inhibition in test [4] came out at 17%.
With `COc1cccc(C(=O)Nc2ccc(-c3cn4ccsc4n3)cc2)c1OC`, the ΔTm in test [2] came out at 3 °C. Further, the MIC in test [3], in test [7] and in test [1] was greater than 12.5 µg/mL each time. Besides, the inhibition in [4] was found to be 17%.
In the case of `O=C(Cc1ccc(NC(=O)c2ccc(F)cc2Cl)cc1)NCc1cccs1`, the ΔTm in test [2] is 1.8 °C. Also, the MIC in test [3], in [7] and in [1] was greater than 12.5 µg/mL in each case. In test [4], the inhibition was determined as 20%.

These data come from ChEMBL document CHEMBL3399984, “Identification of Bacillus anthracis PurE inhibitors with antimicrobial activity” (Bioorg Med Chem, 2015).
